Assays:
FRAP1 = assay: Phospho-Akt1 (Ser473) cellular assay; assay type: cell-based, human; conditions: Hek 293 cells; for dose response in the phospho-Akt1 (Ser473) assay: FIG. 5; for IC50 through the FRAP1 pathway compared with the PDPK1 pathway: anti-phospho Akt1 (Ser473) versus anti-phospho Akt (Thr308) assays
Method: (§1) In this cellular assay, compounds were tested for their ability to inhibit Braf, by measuring the phosphorylation of Mek1, a direct kinase substrate of Braf. A375 cells expressing the constitutively active Braf V600E mutation were plated at a density of 3e5 cells/mL in a 10 cm plate and transfected with expression plasmid encoding detectable protein (16 μg) in 1 mL OPTI-MEM buffer (GIBCO/Invitrogen) with 40 μL Lipofectamine 2000 (Invitrogen) and incubated at 37° C. for 18-22 h. On the following day, media was removed and cells washed with PBS, trypsinized then quenched with M3 media (DMEM containing 10% FBS). Cells were counted and resuspended in M3 complete media to a density of […] and then plated at 50,000 cells/well/100 μL into a 96-well plate and incubated at 37° C. for 3h. Media was then removed and starvation media (0.5% FBS/DMEM) was added to the wells and allowed to incubate overnight. On the following day, the cells were incubated with compound in M3 starvation media and incubated at 37° C. for 2 hours.
The cells were centrifuged at 3000 rpm for 20 minutes. […] Lysate dilution was carried out in two steps. The 96-well plate containing 10 μL extract aliquot was thawed at room temp, and 40 microliters of a solution of 0.1% BSA /1× PBS 0.05% Tween with 2 nM nucleic acid tag serving as the NF-κB probe was added, and mixed by orbital shaking at 450 rpm at room temp for 10 min. Then 270 microliters of a solution of 20 microgram per mL sheared salmon sperm DNA in 0.1% BSA/1× PBS 0.05was added, and mixed gently by pipetting up and down.
On the following day, beads were pelleted then washed/blocked and resuspended in 1-2×2% BSA/PBST and plated out onto a 96-well polypropylene plate at half the original stock concentration. The phospho-MEK1 binding assay was carried out on a separate plate containing 25 μL of beads and 100 μL 2% BSA/PBST which was shaken until the addition of cell lysate. For the binding assay, beads were first pelleted and the buffer aspirated, and then 100 μL of diluted lysate was added to each well and the plate was shaken at room temperature for one hour. After the binding step, the beads were pelleted for 4 minutes, the buffer aspirated and 150 μL of PBST was added. The plate was briefly shaken and then pelleted over a magnet and then washed two to four times with wash buffer (1× PBS/0.05% Tween 20) to remove unbound proteins. After the final wash, the beads were resuspended in 150 μL of IgG elution buffer (Pierce Cat No. 21004) supplemented with Tween 20 to 0.05% and incubated at room temperature with shaking for 60 minutes. After pelleting the beads, 50 μL of the eluted mixture was removed, and added to 30 μL of 200 mM Tris base, mixed well, and then transferred to the DNA detection assay. For qPCR, 2.5 μL was transferred to 7.5 μL of mastermix with appropriate primers and probes (Applied Biosystems).
As shown in the diagram in FIG. 2, the PIK3CA kinase mediates signaling through two separate pathways, e.g., by direct activation of the kinase substrates FRAP1 (the kinase domain of mTOR), or other less-studied kinases known as “PDK2” in the literature and PDPK1, both of which in turn phosphorylate Akt. […] Therefore, using this cellular assay, compounds were interrogated for their inhibitory mechanism not only against PIK3CA but also against FRAP1 or PDPK1, by measuring site-specific phosphorylation of Akt. […] A binding assay using anti-total Akt1 antibody was also run in parallel to normalize the amount of measured phospho-Akt1 across wells.

PDPK1 = assay: Phospho-Akt1 (Thr308) cellular assay; assay type: cell-based, human; conditions: Hek 293 cells, FIG. 6
Method: as §1, with “On the following day, the cells were incubated with compound in M3 starvation media and incubated at 37° C. for 2 hours.” left out
As shown in the diagram in FIG. 2, the PIK3CA kinase mediates signaling through two separate pathways, e.g., by direct activation of the kinase substrates FRAP1 (the kinase domain of mTOR), or other less-studied kinases known as “PDK2” in the literature and PDPK1, both of which in turn phosphorylate Akt. […] A binding assay using anti-total Akt1 antibody was also run in parallel to normalize the amount of measured phospho-Akt1 across wells.

Structure (SMILES) | dose response in the phospho-Akt1 (Ser473) assay (FRAP1) | IC50 through the FRAP1 pathway compared with the PDPK1 pathway (FRAP1) | inhibition of Thr308 phosphorylation of Akt (PDPK1)
O=C(NCCCNc1nc(Nc2cccc(NC(=O)N3CCCC3)c2)ncc1I)c1cccs1 [BX-795] | insensitive | selectively inhibiting PDPK1 over FRAP1 | 
Oc1cccc(-c2nc(N3CCOCC3)c3oc4ncccc4c3n2)c1 [PI103] |  | nearly equipotent IC50 | 
Nc1nc(N)c2nc(-c3cccc(O)c3)c(-c3cccc(O)c3)nc2n1 [TG-100-115] | insensitive |  | 
FC(F)c1nc2ccccc2n1-c1nc(N2CCOCC2)nc(N2CCOCC2)n1 [ZSTK-474] |  | nearly equipotent IC50s | 
C[C@@H]1C[C@H]2O[C@@H]2/C=C\C=C\C(=O)Cc2c(Cl)c(O)cc(O)c2C(=O)O1 [radicicol] | partially sensitive |  | could only partially inhibit Thr308 phosphorylation
